In paper PMC6155626 (Molecules : A Journal of Synthetic Chemistry and Natural …, 2016):
Values after ≈ are worked out from the molar mass of the structure shown. Values joined by “and” are separate entries in the source; they are usually repeats but may differ in a detail not shown here. Equal entries are not always repeated. Where two headings read alike, the source gives them in different places.

Assays:
[1] = test system: Xanthomonas oryzae pv. oryzae; test: microbe, parasite or virus in culture; type: cell-based; details: for inhibition at 100 µg/mL: read-out: Inhibition rate, X. oryzae, 100 μg/mL, average of three replicates; for inhibition at 200 µg/mL: read-out: Inhibition rate, X. oryzae, 200 μg/mL, average of three replicates; for Inhibition rate: average of three replicates
Ralstonia solanacearum [2] = test: microbe, parasite or virus in culture; type: cell-based; details: for EC50 / Inhibition rate: R. solanacearum; for inhibition at 100 µg/mL / inhibition at 200 µg/mL: read-out: Inhibition rate; for Inhibition rate: average of three replicates
[3] = test system: Xanthomonas axonopodis pv. citri; test: microbe, parasite or virus in culture; type: cell-based; details: for inhibition at 100 µg/mL / inhibition at 200 µg/mL: read-out: Inhibition rate
X. oryzae in rice plant [4] = type: in vivo, Xanthomonas oryzae pv. oryzae; details: 200 μg/mL, 14 days after spraying
tobacco leaves = details: for Necrosis (lesion diameter) on tobacco leaves: Nicotiana benthamiana (tobacco)
[5] = test system: rice seeds (Fengyou Xiangzhan)
X. oryzae in rice plant [6] = details: 200 μg/mL; cited from earlier work
[7] = test system: Xanthomonas oryzae pv. oryzae; details: X. oryzae, previously reported analog, cited from earlier work
Ralstonia solanacearum [8] = details: R. solanacearum, previously reported analog, cited from earlier work
[9] = 50 to 300 μM, four days after inoculation
[10] = Fengyou Xiangzhan, rice, in vivo

`CS(=O)(=O)c1nnc(COc2ccc(F)cc2)o1` [Compound 5I-1, 2-(4-Fluorophenoxymethyl)-5-(methylsulfonyl)-1,3,4-oxadiazole] gave an EC50 ([1]; Xanthomonas oryzae) of 0.45 ± 0.06 µg/mL (≈ 1.65 µM), an inhibition at 100 µg/mL ([1]; Xanthomonas oryzae) of 100% and an inhibition at 200 µg/mL ([1]; Xanthomonas oryzae) of 100%. For the same molecule, the EC50 (Ralstonia solanacearum [2]) was 1.97 ± 0.23 µg/mL (≈ 7.24 µM), the EC50 (Ralstonia solanacearum [2]; Ralstonia solanacearum) was 1.67 µg/mL (≈ 6.13 µM) and the inhibition at 100 µg/mL (Ralstonia solanacearum [2]; Ralstonia solanacearum) was 100%. For the same molecule, the inhibition at 200 µg/mL (Ralstonia solanacearum [2]; Ralstonia solanacearum) was 100%, the EC50 ([3]; Xanthomonas axonopodis) was 80.5 ± 5.38 µg/mL and the inhibition at 100 µg/mL ([3]; Xanthomonas axonopodis) was 72%. For the same molecule, the inhibition at 200 µg/mL ([3]; Xanthomonas axonopodis) was 80%, the “Disease Index” value (X. oryzae in rice plant [4]) was 15.6 and the Morbidity (X. oryzae in rice plant [4]) was 100.0%. The “Protective Efficiency” value (X. oryzae in rice plant [4]) was 90.4% and 90.4 ± 2.8%, the melting point was 108 to 110 °C and the “Phytotoxic effect on tobacco plant (in words)” value (from here on “Phytotoxic effect”) (tobacco leaves; [9]) was “no apparently phytotoxicity”. The “Necrosis (lesion diameter) on tobacco leaves” value (shortened to “Necrosis (lesion diameter)”) (tobacco leaves; in vivo) was 0.2–0.3 cm, the “Phytotoxic effect” value (tobacco leaves; in vivo) was “no or negligible phytotoxic effect” and the “Phenotypic effect on rice seedlings, root growth and shoot development (in words)” value (“Phenotypic effect on rice seedlings” for short) [5, 10] was “barely effected root growth or inhibited shoot development at concentration 1–100 μM”. For the same molecule, the “Phenotypic effect on rice seedlings” value ([5]; concentration (1–300 μM)) was “no apparently phytotoxicity”.

`S=c1[nH]nc(NCNc2n[nH]c(=S)s2)s1` [Bismerthiazol, 5,5′-(methylenediimino)bis-1,3,4-Thiadiazole-2(3H)-thione, reference compound] gave an EC50 ([1]; Xanthomonas oryzae) of 92.6 ± 2.15 µg/mL (≈ 333 µM), an inhibition at 100 µg/mL ([1]; Xanthomonas oryzae) of 54% and an inhibition at 200 µg/mL ([1]; Xanthomonas oryzae) of 72%. It also gave an EC50 (Ralstonia solanacearum [2]; Ralstonia solanacearum) of 59.7 ± 2.56 µg/mL (≈ 214 µM), an inhibition at 100 µg/mL (Ralstonia solanacearum [2]; Ralstonia solanacearum) of 99% and an inhibition at 200 µg/mL (Ralstonia solanacearum [2]; Ralstonia solanacearum) of 100%. For the same molecule, the EC50 [3] was 119.5 ± 5.1 µg/mL, the EC50 ([3]; Xanthomonas axonopodis) was 119 µg/mL and the EC50 ([3]; Xanthomonas axonopodis, read-out: Bactericidal EC50 in molar terms) was ~333 µM. For the same molecule, the inhibition at 100 µg/mL ([3]; Xanthomonas axonopodis) was 45%, the inhibition at 200 µg/mL ([3]; Xanthomonas axonopodis) was 67% and the “Disease Index” value (X. oryzae in rice plant [4]) was 60.0. For the same molecule, the Morbidity (X. oryzae in rice plant [4]) was 100.0%, the “Protective Efficiency” value (X. oryzae in rice plant [4]) was 25.6% and 25.6 ± 4.4% and the “Necrosis (lesion diameter)” value (tobacco leaves; in vivo) was 0.2–0.3 cm. For the same molecule, the “Phytotoxic effect” value (tobacco leaves; in vivo) was “no or negligible phytotoxic effect”, the “Concentration showing phytotoxicity on rice germination” value [5, 10] was 300 µM and the “Control efficiency against rice bacterial leaf blight” value (X. oryzae in rice plant [6]) was 25.49%.

For `CS(=O)(=O)c1nnc(Cc2ccc(Cl)cc2)o1` [C00001 (R = 4-Cl, X = CH2)], the EC50 ([7]; X = CH2) is given as 12.23 ± 1.45 ^15 μg/mL.

For `CS(=O)(=O)c1nnc(-c2ccc(Cl)cc2)o1` [C00001 (R = 4-Cl, X = No Atom)], the EC50 ([7]; X = No Atom) is given as 23.21 ± 0.98 ^16 μg/mL and the EC50 (Ralstonia solanacearum [8]; X = No Atom) is given as 120.90 ± 2.6 ^14 μg/mL.

`CS(=O)(=O)c1nnc(COc2ccc(Cl)cc2)o1` [Compound 5I-2, 2-((4-Chlorophenoxy)methyl)-5-(methylsulfonyl)-1,3,4-oxadiazole] showed an EC50 ([1]; Xanthomonas oryzae) of 1.44 ± 0.18 µg/mL (≈ 4.99 µM), an inhibition at 100 µg/mL ([1]; Xanthomonas oryzae) of 100% and an inhibition at 200 µg/mL ([1]; Xanthomonas oryzae) of 100%. It also gave an EC50 (Ralstonia solanacearum [2]; Ralstonia solanacearum) of 13.4 ± 1.54 µg/mL (≈ 46.5 µM), an inhibition at 100 µg/mL (Ralstonia solanacearum [2]; Ralstonia solanacearum) of 100% and an inhibition at 200 µg/mL (Ralstonia solanacearum [2]; Ralstonia solanacearum) of 100%. It also gave an EC50 ([3]; Xanthomonas axonopodis) of 31.4 ± 3.56 µg/mL, an inhibition at 100 µg/mL ([3]; Xanthomonas axonopodis) of 76% and an inhibition at 200 µg/mL ([3]; Xanthomonas axonopodis) of 88%. For the same molecule, the “Disease Index” value (X. oryzae in rice plant [4]) was 23.8, the Morbidity (X. oryzae in rice plant [4]) was 100.0% and the “Protective Efficiency” value (X. oryzae in rice plant [4]) was 77.7% and 77.7 ± 3.4%. The melting point was 113 to 114 °C, the “Phytotoxic effect” value (tobacco leaves; [9]) was “no apparently phytotoxicity” and the “Necrosis (lesion diameter)” value (tobacco leaves; in vivo) was 0.2–0.3 cm. For the same molecule, the “Phytotoxic effect” value (tobacco leaves; in vivo) was “no or negligible phytotoxic effect”, the “Phenotypic effect on rice seedlings” value ([5]; concentration (1–300 μM)) was “no apparently phytotoxicity” and the “Phenotypic effect on rice seedlings” value ([5]; in vivo) was “predominantly inhibited root growth while allowing moderate shoot development”.

In the case of `CS(=O)(=O)c1nnc(-c2ccc(Cl)cc2Cl)o1` [C00001 (R = 2,4-di Cl, X = No Atom)], the EC50 ([7]; X = No Atom) is given as 52.14 ± 1.05 ^16 μg/mL and the EC50 (Ralstonia solanacearum [8]; X = No Atom) is given as 16.55 ± 1.12 ^14 μg/mL.

In the case of `CS(=O)(=O)c1nnc(Cc2ccc(Cl)cc2Cl)o1` [C00001 (R = 2,4-di Cl, X = CH2)], the EC50 ([7]; X = CH2) is given as 1.96 ± 0.99 ^15 μg/mL and the EC50 (Ralstonia solanacearum [8]; X = CH2) is given as 59.9 ^26 μg/mL.

For `CS(=O)(=O)c1nnc(COc2ccc(Cl)cc2Cl)o1` [Compound 5I-4, 2-((2,4-Dichlorophenoxy)methyl)-5-(methylsulfonyl)-1,3,4-oxadiazole], the EC50 ([1]; Xanthomonas oryzae) was 0.72 ± 0.15 µg/mL (≈ 2.23 µM), the inhibition at 100 µg/mL ([1]; Xanthomonas oryzae) was 100% and the inhibition at 200 µg/mL ([1]; Xanthomonas oryzae) was 100%. It also gave an EC50 (Ralstonia solanacearum [2]; Ralstonia solanacearum) of 20.5 ± 1.56 µg/mL (≈ 63.5 µM), an inhibition at 100 µg/mL (Ralstonia solanacearum [2]; Ralstonia solanacearum) of 100% and an inhibition at 200 µg/mL (Ralstonia solanacearum [2]; Ralstonia solanacearum) of 100%. For the same molecule, the EC50 ([3]; Xanthomonas axonopodis) was 49 ± 2.34 µg/mL, the inhibition at 100 µg/mL ([3]; Xanthomonas axonopodis) was 48% and the inhibition at 200 µg/mL ([3]; Xanthomonas axonopodis) was 69%. For the same molecule, the Morbidity (X. oryzae in rice plant [4]) was 100.0%, the “Necrosis (lesion diameter)” value (tobacco leaves; in vivo) was 0.2–0.3 cm and the “Phytotoxic effect” value (tobacco leaves; in vivo) was “no or negligible phytotoxic effect”. For the same molecule, the “Phenotypic effect on rice seedlings” value [5, 10] was “severely inhibited both root growth and shoot development even at the lowest concentration 1 μM” and the “Phenotypic effect on rice seedlings” value ([5]; concentration (1–300 μM)) was “highly suppressed both root and shoot development”.

For `CS(=O)(=O)c1nnc(Cc2ccc(F)cc2)o1` [C00001 (R = F, X = CH2), 2-(4-fluorobenzyl)-5-(methylsulfonyl)-1,3,4-oxadiazole], the EC50 ([7]; X = CH2) is given as 1.07 ± 0.68 ^15 μg/mL.

In the case of `CS(=O)(=O)c1nnc(-c2ccc(F)cc2)o1` [C00001 (R = F, X = No Atom), 2-(4-fluorophenzyl)-5-(methylsulfonyl)-1,3,4-oxadiazole], the EC50 ([7]; X = No Atom) is listed as 9.89 ± 1.52 ^16 μg/mL and the EC50 (Ralstonia solanacearum [8]; X = No Atom) is listed as 8.29 ± 0.56 ^14 μg/mL.

For `Nc1nnc([S-])s1.Nc1nnc([S-])s1.[Cu+2]` [Thiodiazole-copper, 2-amino-5-mercapto-1,3,4-thiadiazole-copper, reference compound], the EC50 ([1]; X. oryzae) was 121.82 ± 3.59 µg/mL, the Inhibition rate ([1]; X. oryzae, 100 μg/mL) was 35% and the Inhibition rate ([1]; X. oryzae, 200 μg/mL) was 69%. The EC50 (Ralstonia solanacearum [2]) was >200 µg/mL, the Inhibition rate (Ralstonia solanacearum [2]; 100 μg/mL) was 35% and the Inhibition rate (Ralstonia solanacearum [2]; 200 μg/mL) was 50%. For the same molecule, the EC50 [3] was 107.04 ± 1.96 µg/mL, the Inhibition rate [3] was 65% and 47% and the “Disease Index” value (X. oryzae in rice plant [4]) was 55.6. The Morbidity (X. oryzae in rice plant [4]) was 100.0%, the “Protective Efficiency” value (X. oryzae in rice plant [4]) was 32.0 ± 3.0% and the “Protective Efficiency” value (X. oryzae in rice plant [4]; listed as Thiadiazole-copper) was 32.0%.
